Reference: patent US5120758A, “Certain benzodioxole, benzodioxane and benzodioxepin derivatives useful as 5-lipoxygenase inhibitors” (Ciba-Geigy Corporation, priority 1991, dated 1992)
Read-outs that look alike come from different tables or passages of the source.

Assays:
[1] = tested on: 5-lipoxygenase; experiment: Ex vivo inhibition of A-23187-stimulated LTB4 formation in whole blood after oral administration; conditions: dose of about 1.0 mg/kg p.o. to the dog
Protocol: Furthermore, the inhibition of 5-lipoxygenase is determined after oral or i.v. administration to rats or dogs by measuring ex vivo in whole blood the decrease of A-23187-stimulated LTB4 formation as compared to non-treated control animals.

[2] = molecular target: T1, 5-lipoxygenase (Cavia porcellus, UniProt A0A286X958); experiment: Inhibition of 5-HETE and LTB4 synthesis in A-23187-stimulated guinea pig polymorphonuclear leukocytes; format: cell-based
T1 construct: in A-23187-stimulated guinea pig polymorphonuclear leukocytes; endogenous in cells; host or cells: guinea pig polymorphonuclear leukocytes
T1 sequence (A0A286X958 1-674): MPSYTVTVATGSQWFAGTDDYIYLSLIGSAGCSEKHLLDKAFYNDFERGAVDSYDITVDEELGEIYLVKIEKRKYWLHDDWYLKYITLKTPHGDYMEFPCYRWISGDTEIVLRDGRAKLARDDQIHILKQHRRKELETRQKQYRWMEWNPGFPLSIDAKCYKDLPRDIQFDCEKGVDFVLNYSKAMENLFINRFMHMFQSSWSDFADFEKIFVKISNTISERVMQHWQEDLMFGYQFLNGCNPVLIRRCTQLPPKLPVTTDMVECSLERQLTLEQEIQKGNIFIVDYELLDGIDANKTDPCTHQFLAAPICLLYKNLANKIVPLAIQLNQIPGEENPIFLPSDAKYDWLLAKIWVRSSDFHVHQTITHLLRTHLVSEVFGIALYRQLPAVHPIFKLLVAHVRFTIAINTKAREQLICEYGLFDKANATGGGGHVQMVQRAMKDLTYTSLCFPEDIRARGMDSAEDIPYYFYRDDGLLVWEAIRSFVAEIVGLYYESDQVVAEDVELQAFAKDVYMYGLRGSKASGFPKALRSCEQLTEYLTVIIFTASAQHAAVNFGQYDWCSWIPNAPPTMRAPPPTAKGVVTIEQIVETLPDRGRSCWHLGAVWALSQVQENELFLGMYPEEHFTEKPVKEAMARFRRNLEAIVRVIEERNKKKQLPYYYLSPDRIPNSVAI
Protocol: 5-Lipoxygenase inhibition is determined e.g. by measuring the percent inhibition of the synthesis of 5-HETE [(5S)-5-hydroxy-6,8,11,14-eicosa-tetraenoic acid] and leukotriene B4 (LTB4, 5,12-dihydroxy-6,8,10,14-eicosatetraenoic acid) in A-23187-stimulated guinea pig polymorphonuclear leukocytes, essentially according to radiometric thin-layer chromatographic assays described by Walker and Dawson (J. Pharm. Pharmacol. 31: 778, 1979) and Jakschik and Lee (Nature 287: 51, 1980) to measure the formation of 5-HETE and LTB4 -like products from ^14 C-arachidonic acid. IC50 values are determined graphically as the concentration of test compound at which the synthesis of 5-HETE and LTB4 -like products is reduced to 50% of their respective control values.

IC50 ([2]; read-out: IC50, inhibition of formation of 5-HETE): ~100 nM
IC50 ([2]; read-out: IC50, inhibition of formation of leukotriene B4 (LTB4)): ~120 nM
Structure (SMILES): NC(=O)N(O)CC1COc2ccc(Oc3ccc(F)cc3)cc2O1 (stereo not drawn) [1(c), 2-(N-aminocarbonyl-N-hydroxy)aminomethyl-7-(4-fluorophenoxy)-1,4-benzodioxane]
inhibition of LTB4 formation as determined ex vivo [1]: significant inhibition
